Measured values reported in patent publication US20120238554A1, “SALTS OF POTASSIUM ATP CHANNEL OPENERS AND USES THEREOF” (priority 2007, published 2012).
Values after ≈ are worked out from the molar mass of the structure shown.

Experiments:
[1] = test system: barbital-anesthetized open-chest pigs; details: 3.5 mg/kg IV, 30 min occlusion, 3 h reflow, n=7; cited from earlier work
[2] = test system: cardiomyocytes from the infarct border zone; details: cardiomyocytes from the infarct border zone (74 ms without, sham 41 ms); cited from earlier work
[3] = Form conversion and degradation under thermal stress (60° C.); details: 60° C., closed, protected from light, 7 and 14 days
Description: Studies were also conducted to evaluate the likelihood for conversion and degradation under thermal stress.

[4] = test system: obese subjects; experiment: Single 200 mg dose study: fasting glucose, insulin, NEFA, serum Na, K, creatinine; details: either formulation
Description: Three exploratory endpoints were evaluated in the study. Blood glucose, insulin and non-esterified fatty acids (NEFA) were measured prior to dosing and at 1, 3, 6, 9, 12, 24, and 48 hours post dosing. Blood glucose and insulin levels were also assessed at end of study. Data collected at times 1, 3, 24, and 48 hours after dose administration were obtained under fasting conditions. The remaining data points were post-prandial measures.

[5] = test system: person with pulmonary hypertension; details: oral diazoxide over six years; cited from earlier work
[6] = Solubility in 100 mM phosphate buffer with titration, 18 h slurry (Table 15); assay type: physicochemical; details: thermodynamic from solid, ambient
Description: Each determination was carried out in duplicate, slurrying each sample in a 100 mM phosphate buffer solution, pH 7.00. […] After this time all samples were centrifuged, and the supernatant was diluted with mobile phase (MeCN/Water.).

[7] = Slurry studies of inter-conversion of the solid form; details: room temperature, no light, 14 days; water, isopropyl alcohol, dichloromethane, toluene
[8] = Moisture sorption analysis; assay type: physicochemical
Description: Moisture Sorption Analysis was performed with a Hiden IGAsorp Moisture Sorption Instrument, Samples were first dried at 0% relative humidity at 25° C. until an equilibrium weight was reached, or for a maximum of 4 hours. Samples were then subjected to an isothermal (25° C.) scan from 10-90% relative humidity in steps of 10%. The samples were allowed to equilibrate to an asymptotic weight at each point for a maximum of 4 hours. Following absorption, a desorption scan from […] relative humidity (at 25° C.) was run in steps of −10%, again allowing a maximum of 4 hours for the samples to equilibrate. The resulting samples after desorption were dried at 80° C. for two hours and analyzed by XRPD.

[9] = test system: patients with primary pulmonary hypertension; details: cited from earlier work
[10] = test system: patients with elevated fasting triglycerides; experiment: Diazoxide treatment of hypertriglyceridemia, 7 to 49 days: fasting triglycerides, LDL-cholesterol; assay type: in vivo, human; details: for fasting triglycerides reduced: titrated patients
Description: All patients were dosed once per day for an uninterrupted period of time.
Patients were placed on a low fat diet at the start of treatment which continued to the end of treatment.
Each subject's baseline circulating triglyceride level was calculated as the average of two measurements of fasting triglycerides taken approximately two weeks apart, with the second taken predose on the first day of treatment.

[11] = test system: Zucker Diabetic Fatty (ZDF) rats; details: 150 mg/kg/day, 8 weeks; cited from earlier work

CC1=NS(=O)(=O)c2cc(Cl)ccc2N1 [diazoxide, 7-chloro-3-methyl-2H-1,2,4-benzothiadiazine 1,1 dioxide]
Infarct size (percentage of the area at risk) [1]: 14.6±7.4% | action potential duration [2]: 42 ms | form conversion and degradation under thermal stress (XRPD, DSC) [3]: no conversion or degradation | fasting glucose ([4]; 24 or 48 hours after dose administration): no evidence for a significant increase in fasting glucose | fasting insulin ([4]; after the single 200 mg dose): no evidence for a reduction in fasting insulin | pulmonary arterial pressure [5]: reduced to normal levels | solubility at 18 h ([6]; pH 6.9, aqueous buffer, pH after slurry 6.90): 70 µg/mL (≈ 303 µM) | solubility at 18 h ([6]; pH 7.31, aqueous buffer, pH after slurry 7.31): 70 µg/mL (≈ 303 µM) | inter-conversion of the solid form in slurry [7]: did not convert to alternate crystal forms | crystalline form after moisture sorption/desorption (XRPD) [8]: same crystalline form | hydrate formation (hysteresis upon desorption) ([8]; 25° C.): does not form a stable hydrate | Moisture Sorption (hygroscopicity) ([8]; 25° C., listed as free form diazoxide): non-hygroscopic | water absorbed ([8]; 60% RH, 25° C.): approximately 0.04 wt % | water absorbed ([8]; 90% RH, 25° C.): ~0.20 wt % | change in pulmonary artery pressure ([9]; injected into the pulmonary artery, nine patients): no significant change | patients unable to tolerate the drug ([9]; oral diazoxide given to seven patients): Five | reductions in fasting triglycerides ([10]; 100 mg per day diazoxide equivalent as Diazoxide Choline Controlled-Release Tablets, 7 days): 38% | reductions in fasting triglycerides ([10]; 100 mg per day diazoxide equivalent, 14 days): 18% | reductions in fasting triglycerides ([10]; 150 mg for 5 days then 300 mg for 9 days, at 7 and 14 days): 50% | reductions in fasting triglycerides ([10]; 200 mg per day diazoxide equivalent, 7 days): 23% | reductions in fasting triglycerides ([10]; 200 mg per day diazoxide equivalent, 14 days): 20% | reductions in fasting triglycerides ([10]; 300 mg per day diazoxide equivalent, 7 days): 18% | reductions in fasting triglycerides ([10]; 300 mg per day diazoxide equivalent, 14 days): 29% | reductions in fasting triglycerides ([10]; 400 mg per day diazoxide equivalent, 7 days): 50% | rise in LDL-cholesterol ([10]; Patient 13, day 21): 6.7% | rise in LDL-cholesterol ([10]; Patient 13, day 42): 11% | reductions in LDL-cholesterol ([10]; patient 8): −8.6% | reductions in LDL-cholesterol ([10]; patient 9): −15.3% | fasting triglycerides reduced ([10]; end of treatment with 150 mg): 21% | fasting triglycerides reduced ([10]; end of treatment with 200 mg): 31% | fasting triglycerides reduced ([10]; end of treatment with 250 mg): 38% | fasting triglycerides reduced ([10]; end of treatment with 300 mg): 38% | fasting triglycerides reduced ([10]; end of treatment with 350 mg): 49% | hepatic triglycerides, long chain acyl-CoA and cholesterol contents [11]: decreased
